{"source": "ChEMBL document CHEMBL5727898", "about": "“Compounds and their use for reducing uric acid levels” (2020)", "target": "Xanthine dehydrogenase/oxidase (Homo sapiens, UniProt P47989)", "sequence (P47989 whole entry)": "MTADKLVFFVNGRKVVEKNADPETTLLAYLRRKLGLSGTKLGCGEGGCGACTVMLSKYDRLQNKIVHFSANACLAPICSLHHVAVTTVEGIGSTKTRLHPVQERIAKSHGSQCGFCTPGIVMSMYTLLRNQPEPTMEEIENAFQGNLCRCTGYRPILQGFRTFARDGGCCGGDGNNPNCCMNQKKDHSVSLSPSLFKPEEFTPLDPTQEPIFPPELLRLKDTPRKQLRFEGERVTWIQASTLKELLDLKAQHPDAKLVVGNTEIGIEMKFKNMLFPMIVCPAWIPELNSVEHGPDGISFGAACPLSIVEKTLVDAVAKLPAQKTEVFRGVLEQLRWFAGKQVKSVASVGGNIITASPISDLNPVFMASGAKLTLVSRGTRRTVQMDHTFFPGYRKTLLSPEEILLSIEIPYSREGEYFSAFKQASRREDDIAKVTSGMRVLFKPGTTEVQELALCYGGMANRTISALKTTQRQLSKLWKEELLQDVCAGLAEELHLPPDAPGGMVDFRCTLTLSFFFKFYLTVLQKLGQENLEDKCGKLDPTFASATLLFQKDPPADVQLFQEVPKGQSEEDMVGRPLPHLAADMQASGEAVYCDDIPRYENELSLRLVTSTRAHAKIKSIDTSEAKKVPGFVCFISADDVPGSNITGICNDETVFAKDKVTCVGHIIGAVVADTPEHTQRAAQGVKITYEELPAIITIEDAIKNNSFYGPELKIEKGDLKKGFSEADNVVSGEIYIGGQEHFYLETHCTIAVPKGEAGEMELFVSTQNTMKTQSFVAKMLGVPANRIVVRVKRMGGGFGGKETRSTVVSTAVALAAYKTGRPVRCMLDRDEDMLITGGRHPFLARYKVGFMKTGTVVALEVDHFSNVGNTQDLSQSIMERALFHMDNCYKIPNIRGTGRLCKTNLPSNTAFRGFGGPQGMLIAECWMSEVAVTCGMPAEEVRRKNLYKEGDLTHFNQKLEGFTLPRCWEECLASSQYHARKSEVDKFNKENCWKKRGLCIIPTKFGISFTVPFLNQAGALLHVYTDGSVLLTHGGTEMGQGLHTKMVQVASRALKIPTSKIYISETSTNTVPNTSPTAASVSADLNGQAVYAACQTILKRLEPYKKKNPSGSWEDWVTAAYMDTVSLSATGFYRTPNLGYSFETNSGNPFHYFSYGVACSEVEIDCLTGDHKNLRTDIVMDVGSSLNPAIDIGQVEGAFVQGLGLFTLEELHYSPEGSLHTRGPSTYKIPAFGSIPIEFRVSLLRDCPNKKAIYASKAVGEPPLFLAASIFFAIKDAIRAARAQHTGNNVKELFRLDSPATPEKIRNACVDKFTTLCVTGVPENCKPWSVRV", "assay": "xanthine oxidase activity: Xanthine oxidase inhibition was determined using a standard fluorescence-based assay for xanthine oxidase activity (McHale A, Grimes H, Coughlan M P: Int J Biochem. 10:317-9, 1979) with minor variations. […] Experiments on test compounds were performed in triplicate in multi-well plates using 10 concentrations of each compound that ranged over a 3-fold dilution.", "data": [{"smiles": "O=C(O)CSc1nnc(Br)n1-c1ccc(C2CC2)c2ccccc12", "values": [{"measurement": "IC50", "value": "> 300", "unit": "µM"}]}]}
